Laboratory results from US5811391A, “Cyclic CS-1 peptidomimetics, compositions and methods of using same” (Cytel Corporation, priority 1995, dated 1998).
Positions of bridges follow the written chain, without caps; N, C: chain ends. Residues, ends and D or L forms follow the SMILES beside them. No end group written: not given here.

Columns and labels:
VLA-4 = VLA-4 (Homo sapiens, UniProt P05556+P13612); assay: In vitro binding assay: 51Cr-labeled Jurkat cells to solid phase-bound CS-1 peptide (SEQ ID NO:5); type: cell-based; parameters: inflammatory cells that contain the VLA-4 receptor [Jurkat cells; host or cells: Jurkat cells (human T lymphoblastic line); settings: for Relative Potency: Table 1, normalized IC50 potency relative to standard peptide SEQ ID NO:6 (=1), Jurkat cells, CS-1
Method: Binding inhibition is measured here as a concentration of peptide that inhibits one-half the binding between a standard number of Jurkat cells and a standard amount of CS-1 peptide bound to the surface of a microtiter plate well. Those concentrations are conveniently expressed as IC50 values, smaller numbers indicating a lower concentration required to inhibit 50 percent binding and therefore greater potency. Further specifics of this assay are provided hereinafter.
Jurkat cells (ATCC TIB 152), a human T lymphoblastic line, labeled with ^51 chromium were used to assay in vitro binding inhibition provided by various peptides discussed herein.
The plates were prepared as follows: The 25-mer CS-1 peptide (SEQ ID NO:5) dissolved at 0.5-1 μg/ml in a buffer of 0.1M NaHCO3 at pH 9.5 that also contained 10 μg/ml of bovine serum albumin (BSA) or a conjugate of the CS-1 peptide linked to ovalbumin (CS-1-OVA) dissolved at 1-2.5 μg/ml in the same buffer was used as the substrate. Each well of the microtiter plates was coated with 50 μl of substrate or buffer alone for controls. The wells were permitted to dry out completely and were then rinsed twice with PBS at pH 7.4. Non-specific binding sites of each well were then blocked using 200 μl per well of RPMI/1 percent BSA for two hours at room temperature. Both solid phase-affixed substrates provided similar results.
Jurkat cells (3-5×10^6 cells) were placed into a 15 ml FALCON™ round-bottom tube with a cap. The tube was centrifuged, and the extra medium was then removed.
Two hundred microliters of a ^51 Cr labeling solution were added to the centrifuged cells and maintained in contact with the cells for 90-120 minutes in a warm room. This procedure typically provides about 50,000-100,000 cpm/well with about 80-100 percent cell viability. Longer contact times provide a greater amount of labeling but lower cell viability.
The labeled cells were washed with (i) complete medium, (ii) 1mM EDTA/PBS and then (iii) RPM1/1 percent BSA free of serum components. The cells were centrifuged after each washing. The cells were finally resuspended in serum-free RPMI/1 percent BSA at a concentration of 1×10^6 viable cells/ml, which provides a concentration that is diluted by one-half in the assay.
Cyclic inhibitor peptides were prepared as stock solutions at 20 mg/ml in DMSO in 1.5 ml cryogenic screwcap vials, and were stored at -70° C. Using FLOW™ round-bottom or V-bottom microtiter plates, the inhibitor peptides were prepared at twice the assay concentration in RPMI/1 percent BSA at 60 μl/well.
Four initial dilutions were typically used.
The ^51 Cr-labeled cells (1×10^6 cells at 60 μl/well) were then admixed with the diluted cyclic peptide solutions. The admixtures were maintained at room temperature (about 22° C.) for 30 minutes.
One hundred microliters of each inhibitor peptide/cell admixture were transferred to the substrate-coated wells. This was done in triplicate for each dilution. The resulting plates were incubated for 30 minutes at 37° C. and then washed gently three times with RPMI/1 percent BSA at 200 μl/well. Binding was observed microscopically, particularly after the second wash.
The bound cells were then lysed by the addition of a 0.5 percent solution of sodium dodecylsulfate in water at 100 μl/well. The resulting solutions were then processed for counting and calculation of IC50 values following usual procedures. Appropriate positive and negative controls were used with each plate so that the results of separate assays could be normalized and compared.
The potency data of Table 1 and Table 2 are so normalized. The absolute IC50 value for the peptide of SEQ ID NO:7 is 0.3 μM.

[1] = tested on: porcine peripheral blood lymphocytes / coronary artery endothelial cells and smooth muscle cells; assay: In vitro porcine allograft model: transendothelial lymphocyte migration; type: cell-based; settings: 10 μg/ml in the medium, IL-1β-stimulated SMC; present-tense example
Method: A similar study is carried out in vitro using porcine coronary artery endothelial cells (EC; as are present in the IEL) and smooth muscle cells (SMC; as are present in the medial layer of the artery). The two cell types are cultured using a membrane transwell system, with the SMC on the bottom layer in M-199 medium (Gibco Labs.). The SMC are stimulated with 100 ng/ml of interleukin-1β (IL-1β) for 24 hours prior to the start of the assay. Porcine peripheral blood lymphocytes are separated by Ficoll-Hypaque, radiolabeled and incubated overnight (about 18 hours) on the EC.

contact hypersensitivity = settings: Ferguson et al. 1991; cited from earlier work
[2] = Retention of potency in PBS containing 10 percent mouse or human serum; type: in vitro ADME; settings: PBS at 7.2-7.4 containing 10 percent mouse or human serum
[3] = Elices et al. 1993; cited from earlier work
[4] = tested on: Jurkat cell adhesion to RA synovial sections; settings: 10-mer at 500 μg/ml; reported in Elices et al., J. Clin. Invest. 1994; cited from earlier work
VLA-4/sVCAM-1 = target: T1, VLA-4/sVCAM-1 (Homo sapiens, UniProt P05556+P13612); assay: In vitro binding assay: Jurkat cells to solid phase-bound sVCAM-1; type: cell-based
T1 construct: host or cells: Jurkat cells carry the VLA-4; The sVCAM-1 partner was made in house in transfected human embryonal kidney 293 cells (ATCC CRL 1573)
Method: Assays conducted using sVCAM-1 as solid phase-bound antigen were carried out substantially identically to those using CS-1. The sVCAM-1 polypeptide used had the same amino acid residue sequence as the materials described in Lobb et al., Biochem. Biophys. Res. Commun., 178:1498-1504 (1991) and Cybulsky et al., Proc. Natl. Acad. Sci., USA, 88:7859-7863 (1991). Human embryonal kidney line 293 (ATCC CRL 1573) cells were co-transfected with a plasmid (pCDNAI;invitrogen) containing the sVCAM-1 DNA sequence and plasmid pSV2-neo [Southern et al., J. Mol. Appl. Gen., 1:327-341 ([…])]. Cells were selected in DMEM, 10 percent fetal bovine serum and 600 μg/ml Geneticin. sVCAM-1 was purified from supernatants using a column containing monoclonal antibody P3H12 (anti-human VCAM-1) coupled to Sepharose 4B. The sVCAM-1 was eluted using 0.1M glycine at pH 2.5 following 50 column washes with PBS, pH 7.2. The eluate was immediately neutralized and dialyzed against PBS for use.

VLA-4, sequence (P13612 34-1032): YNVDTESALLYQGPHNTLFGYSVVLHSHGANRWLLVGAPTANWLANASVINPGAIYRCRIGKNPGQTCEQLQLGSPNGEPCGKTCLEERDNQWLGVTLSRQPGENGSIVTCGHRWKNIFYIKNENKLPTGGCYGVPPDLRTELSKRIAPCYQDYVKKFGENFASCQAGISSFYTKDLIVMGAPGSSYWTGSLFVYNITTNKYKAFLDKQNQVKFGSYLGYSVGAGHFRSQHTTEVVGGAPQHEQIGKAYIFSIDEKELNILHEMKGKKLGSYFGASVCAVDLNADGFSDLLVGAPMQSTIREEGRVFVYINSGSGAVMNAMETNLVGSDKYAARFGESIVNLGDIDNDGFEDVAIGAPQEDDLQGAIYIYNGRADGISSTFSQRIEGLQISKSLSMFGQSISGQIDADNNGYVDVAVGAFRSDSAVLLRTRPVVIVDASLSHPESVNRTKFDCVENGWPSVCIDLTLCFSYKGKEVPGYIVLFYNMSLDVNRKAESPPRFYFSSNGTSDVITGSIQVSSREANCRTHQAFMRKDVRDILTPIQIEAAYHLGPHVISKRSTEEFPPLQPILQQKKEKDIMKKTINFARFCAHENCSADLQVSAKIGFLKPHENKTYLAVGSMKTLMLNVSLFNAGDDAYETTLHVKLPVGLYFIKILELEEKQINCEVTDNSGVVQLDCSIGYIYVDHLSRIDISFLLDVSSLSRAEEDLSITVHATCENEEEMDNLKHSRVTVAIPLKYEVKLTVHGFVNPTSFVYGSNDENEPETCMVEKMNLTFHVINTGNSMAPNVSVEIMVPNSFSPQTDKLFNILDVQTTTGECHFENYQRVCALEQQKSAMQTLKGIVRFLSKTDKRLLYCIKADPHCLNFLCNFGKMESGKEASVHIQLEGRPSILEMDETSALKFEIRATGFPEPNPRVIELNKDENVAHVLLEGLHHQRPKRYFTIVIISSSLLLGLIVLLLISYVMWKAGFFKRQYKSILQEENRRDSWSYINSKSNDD
VLA-4, sequence (P05556 21-798): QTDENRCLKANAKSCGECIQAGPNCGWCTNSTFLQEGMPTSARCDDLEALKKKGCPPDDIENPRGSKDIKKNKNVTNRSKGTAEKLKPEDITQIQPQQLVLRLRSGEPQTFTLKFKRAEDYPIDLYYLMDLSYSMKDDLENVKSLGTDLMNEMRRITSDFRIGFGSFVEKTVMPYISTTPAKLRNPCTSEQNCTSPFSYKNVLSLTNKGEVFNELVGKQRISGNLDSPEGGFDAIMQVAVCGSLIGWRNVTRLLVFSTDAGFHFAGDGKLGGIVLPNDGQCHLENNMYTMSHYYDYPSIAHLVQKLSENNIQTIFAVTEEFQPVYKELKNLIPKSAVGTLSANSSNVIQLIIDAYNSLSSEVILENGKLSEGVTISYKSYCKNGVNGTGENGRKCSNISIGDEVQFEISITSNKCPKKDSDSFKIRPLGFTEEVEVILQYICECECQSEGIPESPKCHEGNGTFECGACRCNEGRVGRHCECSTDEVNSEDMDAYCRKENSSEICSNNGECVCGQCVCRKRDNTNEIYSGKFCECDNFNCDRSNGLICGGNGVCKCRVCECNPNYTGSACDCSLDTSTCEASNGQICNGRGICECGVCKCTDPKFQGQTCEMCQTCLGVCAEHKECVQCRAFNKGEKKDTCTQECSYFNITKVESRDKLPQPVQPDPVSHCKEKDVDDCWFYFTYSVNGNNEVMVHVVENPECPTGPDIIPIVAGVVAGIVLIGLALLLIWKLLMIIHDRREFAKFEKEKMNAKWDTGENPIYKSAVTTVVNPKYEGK
T1 sequence (P13612 34-1032): as the sequence (P13612 34-1032) above
T1 sequence (P05556 21-798): as the sequence (P05556 21-798) above

For `CC(C)C[C@@H]1NC(=O)[C@H](Cc2ccccc2)NC(=O)[C@@H](N)CSSC[C@@H](C(N)=O)NC(=O)[C@H](CO)NC(=O)[C@@H]2CCCN2C(=O)[C@H](Cc2ccccc2)NC(=O)[C@H](CC(=O)O)NC1=O` [SEQ ID NO:13, CFLDFPSC-NH2] (H-CFLDFPSC-NH2; disulfide 1-8), the “Relative Potency” value (VLA-4) was 122 and the transendothelial lymphocyte migration [1] was “reduces lymphocyte migration”.
In the case of Arg-Gly-Asp [Arg-Gly-Asp peptide], the “recruitment of T lymphocytes to skin inflammatory sites” value (contact hypersensitivity) is listed as “also inhibitory”.
In the case of “DELPQLVTLPHPNLHGPEILDVPST [CS-1 peptide, reference compound]”, the “loss of potency in serum-containing buffer” value [2] is given as “lost its potency in less than one hour” and the “clearance from blood circulation” value [3] is given as “rapidly cleared from blood circulation by proteolytic degradation”.
For “GPEILDVPST [SEQ ID NO:6, standard 10-mer peptide GlyProGluIleLeuAspValProSerThr, set atone, reference compound]”, the “Relative Potency” value (VLA-4) is given as 1, the “Potency in inhibiting Jurkat cell binding to CS-1 relative to standard 10-mer of SEQ ID NO:6” value (VLA-4; times/fold more potent than SEQ ID NO:6) is given as about 1 and the “inhibition of Jurkat cell adhesion to RA synovial sections” value [4] is given as “can be inhibited”. The “inhibition of binding between solid phase-bound sVCAM-1 and Jurkat cells (in words)” value (VLA-4/sVCAM-1) was “no inhibition”.
